These results are taken from ChEMBL document CHEMBL3745643, “Recent Advances in the Discovery of Norovirus Therapeutics” (J Med Chem, 2015).

Assay [1] can be described thus: Inhibition of Norovirus RNA dependent RNA polymerase by spectrophotometry.
For assay [2], the system named is Norovirus. The experiment in a line: Antiviral activity against Norovirus infected in HuH7 cells assessed as decrease in viral RNA level after 72 hrs by qRT-PCR analysis. Format: functional, cell-based. Particulars: Huh-7, 72 h.
The test system of assay [3] is Norovirus. The experiment in a line: Antiviral activity against Norovirus infected in HG23 cells assessed as decrease in viral RNA level by qRT-PCR analysis. In kind it is functional, cell-based.
Assay [4] can be described thus: Inhibition of recombinant His-tagged Norovirus 3C-like protease for 45 mins followed by addition of 30 uM EDANS-EPDFHLQGPEDLAK-Dabcyl substrate by FRET assay.
A short description of assay [5]: Inhibition of Norovirus 3C-like protease by FRET assay.

Peptide text beside a SMILES is read from it. * marks the point of attachment. Pyrrolidide = C1CCN(*)C1; Cbz = O=C(OCc1ccccc1)*

Take `Cc1ccc(C(=O)Nc2ccc(S(=O)(=O)O)c3cccc(S(=O)(=O)O)c23)cc1NC(=O)c1cccc(NC(=O)Nc2cccc(C(=O)Nc3cc(C(=O)Nc4ccc(S(=O)(=O)O)c5cccc(S(=O)(=O)O)c45)ccc3C)c2)c1`: the EC50 in assay [1] amounted to 28 nM.

Regarding `Cc1nc(-c2ccccc2)sc1C(=O)Nc1sc2c(c1C#N)CCC2`, the EC50 in the assay with Norovirus [2] amounted to 30100 nM.

In the case of `C[C@@]1(O)[C@H](O)[C@@H](CO)O[C@H]1n1ccc(N)nc1=O`, the EC50 with Norovirus [3] was 18000 nM.

Consider `CC(C)C[C@H](NC(=O)OCc1ccccc1)C(=O)N[C@@H](Cc1ccccc1)C(=O)N[C@H](C=O)CCC(=O)N1CCCC1` (Cbz-Leu-Phe-Glu(Pyrrolidide)-aldehyde), for which the EC50 in assay [4] turned out to be 75 nM.

In assay [5], `CCOC(=O)/C=C/[C@H](C[C@@H]1CCNC1=O)NC(=O)[C@@H](CC(=O)[C@@H](NC(=O)c1cc(C)on1)C(C)C)Cc1ccc(F)cc1` [RUPINTRIVIR] yielded an EC50 of 23 nM.

In turn, `Cc1ccc(C(=O)Nc2ccc(S(=O)(=O)O)c3cc(S(=O)(=O)O)cc(S(=O)(=O)O)c23)cc1NC(=O)c1cccc(NC(=O)Nc2cccc(C(=O)Nc3cc(C(=O)Nc4ccc(S(=O)(=O)O)c5cc(S(=O)(=O)O)cc(S(=O)(=O)O)c45)ccc3C)c2)c1` [SURAMIN HEXASODIUM] displayed an EC50 in assay [1] of 27 nM.
